{"source": "patent US20150159167A1", "about": "“Plants Tolerant to HPPD Inhibitor Herbicides” (Bayer CropScience AG, priority 2009, published 2015)", "key": {"[1]": {"tested_on": "Synechococcus sp. HPPD \"SEQ ID No. 5\"", "assay": "HPPD activity in presence of HPPD inhibitors (pI50, % inhibition)", "type": "biochemical", "from_the_text": "In this content, pI50-value means the log value of the concentration of inhibitor necessary to inhibit 50% of the enzyme activity in molar concentration."}, "[2]": {"tested_on": "tobacco calli containing HPPD SEQ ID No. 7 (Synechococcus sp.)", "assay": "Rooting of calli on media with tembotrione", "type": "cell-based, Nicotiana tabacum", "settings": "6 to 12 weeks", "procedure": "The leaf disks were co-cultivated for 2 days with Agrobacterium tumefaciens cells containing either the binary vector FMP38ebv or AtHPPDbv. Then the leaf disks were transferred to a media allowing the regeneration of shoots for 6 weeks on MS (Musharige and Skoog, (1962), Physiol Plant 15(3): 473-497) media supplemented with BAP ([…]; Benzylaminopurine), carbenicillin ([…]), cefotaxine ([…]), kanamycin (75 mg/mL) and tembotrione (10^−6 M)\nRegenerated calli were transferred on media to induce the development of roots for 6 to 12 weeks: MS (1/2), supplemented with carbenicillin (250 mg/mL), cefotaxine (250 mg/mL), kanamycin (75 mg/mL), and tembotrione (10^−6 M).\nRegenerated shoot calli from a cell transformed with a nucleic acid sequence encoding an HPPD comprising SEQ ID No. 11 (Arabidopsis thaliana) or SEQ ID No. 7 (Synechococcus sp.) were transferred to a media inducing root growth which media was further supplemented with the HPPD inhibitor tembotrione for 6 to 12 weeks."}, "[3]": {"tested_on": "T0 tobacco plants containing FMP38t", "assay": "Response of T0 tobacco plants expressing the FMP38 HPPD to tembotrione", "type": "in vivo, Nicotiana tabacum", "settings": "100 g AI/ha, two weeks after the treatment", "from_the_text": "As an example, rooted plants containing the T-DNA PromCaMV35S-OTP-HIS6-FMP38t-TerCaMV35S, will be transferred to the greenhouse under standard growth conditions. Following a period of acclimation of two weeks, the T0 plants will be treated with a mixture containing 100 g tembotrione/ha prepared from a WP20 (wettable powder 20%) formulation supplemented with ammonium sulfate and methyl ester raps oil. Two weeks after the treatment, the symptoms due to the application of the herbicides will be evaluated. The plants are classified in four categories. The treated plants evaluated as “0” are looking like the untreated tobacco plants. The plants evaluated as “1” display temporarily light bleaching phenotype due to the application of the herbicides. The plants evaluated as “2” display permanent light to strong bleaching symptoms. Finally the plants evaluated as “3” are looking like wild type tobacco plants submitted to the same treatment."}, "[4]": {"tested_on": "T1 tobacco plants containing FMP38e (Synechococcus sp. HPPD FMP38)", "assay": "Glasshouse trial, herbicidal damage after spray", "type": "in vivo, Nicotiana tabacum", "settings": "7 DAT, 100 gAI/ha spray", "procedure": "T0 Tobacco plants containing either the gene from Arabidopsis coding for HPPD or the gene FMP38e from Synechococcus sp. coding for FMP38 HPPD, mentioned above (Example3), were transferred to the glasshouse (28/20° C.), to develop further and produce seeds. Those seeds were harvested and put on soil (ED73 mixed with sand and osmocote Pro) to germinate in the glasshouse (28/20° C.). Three to four weeks later, plantlets were transferred to single pots containing the soil mentioned above. Two weeks later, plants of a size 4-6 cm diameter were sprayed with either • tembotrione at 100 gAI/ha prepared from a WP20 (wettable powder 20%) formulation supplemented with ammonium sulfate and methyl ester raps oil, or • isoxaflutole at 100 gAI/ha prepared from a WP20 formulation supplemented with ammonium sulfate and methyl ester raps oil, or • “blind formulation” made from a WP20 formulation without active ingredient (AI) supplemented with ammonium sulfate and methyl ester raps oil, and were then transferred to a growth chamber with adequate light conditions (20000 Lux). […]"}}, "note": "Where “and” joins values, the source holds several entries; their conditions need not be identical. Equal entries are not always repeated.", "data": [{"compound": "CS(=O)(=O)c1ccc(C(=O)C2C(=O)CCCC2=O)c(Cl)c1COCC(F)(F)F", "note": "[Tembotrione, 2-[2-chloro-4-(methylsulfonyl)-3-[(2,2,2,-tri-fluoroethoxy)methyl]benzoyl]-1,3-cyclo-hexanedione]", "values": [{"measurement": "pI50", "setting": "[1]; 2 mM HPP, 3 minutes incubation", "value": 5.6}, {"measurement": "percentage of inhibition", "setting": "[1]; 5.0 × 10^−6 M inhibitor, compared to activity in absence of inhibitor", "value": 79, "unit": "%"}, {"measurement": "% Elongation & rooting on 10^−6 M tembotrione", "setting": "[2]", "value": 80, "unit": "%"}, {"measurement": "number of plants in category 0 (looking like the untreated tobacco plants)", "setting": "[3]", "value": 1}, {"measurement": "number of plants in category 1 (temporarily light bleaching phenotype)", "setting": "[3]", "value": 1}, {"measurement": "number of plants in category 3 (looking like wild type tobacco plants submitted to the same treatment)", "setting": "[3]", "value": 14}, {"measurement": "% injury", "setting": "[4]; line 34, one value per plant", "value": 30, "unit": "%"}, {"measurement": "% injury", "setting": "[4]; line 39, one value per plant", "value": "0% and 5%"}]}]}
